Type in all cases: functional, cell membranes, Plasma membrane vesicle
Series [1] addresses ATP-binding cassette sub-family C member 2 (Rattus norvegicus, UniProt Q63120). The series is described as follows: (§1) TP_TRANSPORTER: uptake in liver plasma membrane vesicles of Wistar rat.
The target of series [2] is T1, ATP-binding cassette sub-family C member 2 (ABCC2) (Rattus norvegicus, UniProt Q63120). Put plainly: TP_TRANSPORTER: inhibition of LTC4 uptake (LTC4: 0.01 uM, Vinblastine: 100 uM) in liver plasma membrane vesicles of Wistar rat. On the set-up: scale not given: the % may be the effect or the level left. The note with it: probe LTC4 (0.01 uM), read-out: Activity.
Series [3] deals with T1, ATP-binding cassette sub-family C member 2 (ABCC2). The series is described as follows: TP_TRANSPORTER: inhibition of LTC4 uptake (LTC4: 0.01 uM, Vincristine: 100 uM) in liver plasma membrane vesicles of Wistar rat. On the set-up: scale not given: the % may be the effect or the level left. The note with it: probe LTC4 (0.01 uM), read-out: Activity.
Substrate in series [4]: CCCCC/C=C\C\C=C/C=C/C=C/[C@@H](SC[C@@H](NC(=O)CC[C@H](N)C(=O)O)C(=O)NCC(=O)O)[C@@H](O)CCCC(=O)O
The series is described as §1.

Substrate in series [5]: CCCCC/C=C\C\C=C/C=C/C=C/[C@@H](SC[C@H](N)C(=O)NCC(=O)O)[C@@H](O)CCCC(=O)O
The description is as §1.

Substrate in series [6]: CCCCC/C=C\C\C=C/C=C/C=C/[C@@H](SC[C@H](NC(C)=O)C(=O)O)[C@@H](O)CCCC(=O)O
Described as §1.

Take `CCCCC/C=C\C\C=C/C=C/C=C/[C@@H](SC[C@H](N)C(=O)O)[C@@H](O)CCCC(=O)O` [LEUKOTRIEN E4]: the Activity entry in series [1] is “substrate [+]”.
Take `CC[C@]1(O)C[C@@H]2CN(CCc3c([nH]c4ccccc34)[C@@](C(=O)OC)(c3cc4c(cc3OC)N(C)[C@H]3[C@@](O)(C(=O)OC)[C@H](OC(C)=O)[C@]5(CC)C=CCN6CC[C@]43[C@@H]65)C2)C1` [VINBLASTINE]: the activity at 100 µM in series [2] was 29%.
In the case of `CC[C@]1(O)C[C@H]2CN(CCc3c([nH]c4ccccc34)[C@@](C(=O)OC)(c3cc4c(cc3OC)N(C=O)[C@H]3[C@@](O)(C(=O)OC)[C@H](OC(C)=O)[C@]5(CC)C=CCN6CC[C@]43[C@@H]65)C2)C1` [VINCRISTINE], in series [3], the activity at 100 µM came to 42%.

B1: ATP-binding cassette sub-family C member 2 (Rattus norvegicus) (protein)
chain: MDKFCNSTFWDLSLLESPEADLPLCFEQTVLVWIPLGFLWLLAPWQLYSVYRSRTKRSSITKFYLAKQVFVVFLLILAAIDLSLALTEDTGQATVPPVRYTNPILYLCTWLLVLAVQHSRQWCVRKNSWFLSLFWILSVLCGVFQFQTLIRALLKDSKSNMAYSYLFFVSYGFQIVLLILTAFSGPSDSTQTPSVTASFLSSITFSWYDRTVLKGYKHPLTLEDVWDIDEGFKTRSVTSKFEAAMTKDLQKARQAFQRRLQKSQRKPEATLHGLNKKQSQSQDVLVLEEAKKKSEKTTKDYPKSWLIKSLFKTFHVVILKSFILKLIHDLLVFLNPQLLKLLIGFVKSSNSYVWFGYICAILMFAVTLIQSFCLQSYFQHCFVLGMCVRTTVMSSIYKKALTLSNLARKQYTIGETVNLMSVDSQKLMDATNYMQLVWSSVIQITLSIFFLWRELGPSILAGVGVMVLLIPVNGVLATKIRNIQVQNMKNKDKRLKIMNEILSGIKILKYFAWEPSFQEQVQGIRKKELKNLLRFGQLQSLLIFILQITPILVSVVTFSVYVLVDSANVLNAEKAFTSITLFNILRFPLSMLPMVTSSILQASVSVDRLERYLGGDDLDTSAIRRVSNFDKAVKFSEASFTWDPDLEATIQDVNLDIKPGQLVAVVGTVGSGKSSLVSAMLGEMENVHGHITIQGSTAYVPQQSWIQNGTIKDNILFGSEYNEKKYQQVLKACALLPDLEILPGGDMAEIGEKGINLSGGQKQRVSLARAAYQDADIYILDDPLSAVDAHVGKHIFNKVVGPNGLLAGKTRIFVTHGIHFLPQVDEIVVLGKGTILEKGSYRDLLDKKGVFARNWKTFMKHSGPEGEATVNNDSEAEDDDDGLIPTMEEIPEDAASLAMRRENSLRRTLSRSSRSSSRRGKSLKNSLKIKNVNVLKEKEKEVEGQKLIKKEFVETGKVKFSIYLKYLQAVGWWSILFIILFYGLNNVAFIGSNLWLSAWTSDSDNLNGTNNSSSHRDMRIGVFGALGLAQGICLLISTLWSIYACRNASKALHGQLLTNILRAPMRFFDTTPTGRIVNRFSGDISTVDDLLPQTLRSWMMCFFGIAGTLVMICMATPVFAIIIIPLSILYISVQVFYVATSRQLRRLDSVTKSPIYSHFSETVTGLPIIRAFEHQQRFLAWNEKQIDINQKCVFSWITSNRWLAIRLELVGNLVVFCSALLLVIYRKTLTGDVVGFVLSNALNITQTLNWLVRMTSEAETNIVAVERISEYINVENEAPWVTDKRPPADWPRHGEIQFNNYQVRYRPELDLVLKGITCNIKSGEKVGVVGRTGAGKSSLTNCLFRILESAGGQIIIDGIDVASIGLHDLRERLTIIPQDPILFSGSLRMNLDPFNKYSDEEVWRALELAHLRSFVSGLQLGLLSEVTEGGDNLSIGQRQLLCLGRAVLRKSKILVLDEATAAVDLETDSLIQTTIRKEFSQCTVITIAHRLHTIMDSDKIMVLDNGKIVEYGSPEELLSNRGSFYLMAKEAGIENVNHTEL
As for B1, the Km in series [4] worked out at 0.25 µM; in series [5], 1.5 µM; in series [6] it was 5.2 µM.

These data come from ChEMBL document CHEMBL2074429, “ATP-dependent primary active transport of cysteinyl leukotrienes across liver canalicular membrane. Role of the ATP-dependent transport system for glutathione S-conjugates” (J Biol Chem, 1990).
